Assay results taken from patent publication US20250249001A1, “METHODS OF TREATING SUBSTANCE USE DISORDER WITH 4-(3-CYANOPHENYL)-6-PYRIDINYLPYRIMIDINE MGLU5 NEGATIVE ALLOSTERIC MODULATORS” (Tempero Bio, Inc., priority 2022, published 2025).

Assays:
[1] = system: oxycodone self-administration in rats; assay: Intravenous oxycodone self-administration, fixed ratio FR3; format: in vivo, Sprague-Dawley rats; conditions: for oxycodone self-administration, Mean Diff., Vehicle vs. treatment: FR3
Protocol: Animals. Adult male Sprague-Dawley rats (300-325 g at arrival) from Envigo (Indiana, USA) were used. Upon arrival, rats were single housed in standard cages with filter tops, and they were acclimated for at least 7 days before any treatment. All rats were examined and handled prior to initiation of the study. During the study, 12 h/12 h light/dark cycles were maintained. The room temperature was 21-23° C. with a relative humidity maintained at 30-70%. Water was provided ad libitum for the duration of the study.
Test Article(s) • Oxycodone (0.05 mg/kg/infusion; Sigma-Aldrich, USA) was dissolved in saline and infused at a rate of 0.1 ml/infusion. • Compound 1 (0.3, 1, and 3 mg/kg) was formulated in 10% Solutol HS15+90% (10% aqueous hydroxypropyl)-β-cyclodextrin and injected IP 30 minutes prior to test at a dose volume of 2 ml/kg. In the reinstatement study only 3 mg/kg was used. • MTEP (3-((2-Methyl-4-thiazolyl)ethynyl)pyridine; 3 mg/kg), was dissolved in saline and injected IP 30 minutes prior to testing at a dose volume of 2 ml/kg.
Apparatus. Intravenous drug self-administration took place in experimental chambers within sound-attenuating cubicles equipped with an exhaust fan (Med Associates, VT). Each chamber contains two response levers situated on one wall of the chamber. A stimulus light was located above each lever and a house light was located at the top of the opposite wall. A pellet receptacle was situated between the two levers for delivery of food pellets (Bio-Serv's Dustless Precision Pellets #F0165, 45 mg). An infusion pump mounted above each chamber delivers drug solutions via Tygon tubing connected to a single channel fluid swivel, which was mounted on a balance arm above the operant chamber. The output of the liquid swivel was attached to the externalized terminus of the intravenous catheter.
Surgery and catheter maintenance: The rats were first implanted with jugular vein catheters (Access Technologies, USA). After the surgery, catheters were flushed daily with 0.2 ml of heparin-Enrofloxacin solution to avoid clogging and to ensure smooth drug infusion. The flushing liquid was made in 50 ml volume units which contained 1500 U Heparin and 320 mg Enrofloxacin (Baytril®). The solution was stored in sterilized vials in a 4° C. refrigerator. After the rats recovered from catheterization surgery, they were food-restricted (about 15 or 20 g/day) and maintained at ˜85% of their free-feeding, age-matched control body weight throughout the study. Starting from the 3rd day of food restriction, rats were trained to press the active lever (one of the two levers) to obtain food. During the study, Methohexital sodium (Brevital®, Henry Schein Animal Health, USA) was used twice for catheter evaluation and thereby for indirect infusion confirmation. Brevital is a short-acting barbiturate that, when infused through the catheter, produces overt signs of sedation within seconds. […] The rats were first implanted with jugular vein catheters (Access Technologies, USA). After the surgery, catheters were flushed daily with 0.2 ml of heparin-Enrofloxacin solution to avoid clogging and to ensure smooth drug infusion. The flushing liquid was made in 50 ml volume units which contained 1500 U Heparin and 320 mg Enrofloxacin (Baytril®). The solution was stored in sterilized vials in a 4° C. refrigerator. After the rats recovered from catheterization surgery, they were food-restricted (about 15 or 20 g/day) and maintained at ˜85% of their free-feeding, age-matched control body weight throughout the study. Starting from the 3rd day of food restriction, rats were trained to press the active lever (one of the two levers) to obtain food. During the study, Methohexital sodium (Brevital®, Henry Schein Animal Health, USA) was used a few times for catheter evaluation and thereby for indirect infusion confirmation. Brevital is a short-acting barbiturate that, when infused through the catheter, produces overt signs of sedation within seconds. […]

[2] = system: cocaine reinstatement in rats; assay: Yohimbine-induced reinstatement of cocaine self-administration (Stage II); format: in vivo, Sprague-Dawley rats; conditions: 3 mg/kg co-administered with yohimbine 2 mg/kg; Ps<0.001
[3] = 3 mg/kg IP 30 minutes prior to test

SMILES	self-administered oxycodone infusion vs vehicle treatment ([1]; 3 mg/kg IP)	oxycodone self-administration, Mean Diff., Vehicle vs. treatment [1, 3]	yohimbine-induced cocaine reinstatement [2]	oxycodone self-administration, Mean Diff., Vehicle vs. treatment ([1]; 0.3 mg/kg IP 30 minutes prior to test)	oxycodone self-administration, Mean Diff., Vehicle vs. treatment ([1]; 1 mg/kg IP 30 minutes prior to test)	oxycodone self-administration vs vehicle ([1]; all three doses, 0.3, 1 and 3 mg/kg IP)
Cc1nc(C#Cc2cccnc2)cs1 [MTEP, 3-((2-Methyl-4-thiazolyl)ethynyl)pyridine]	significantly decreased self-administered oxycodone infusion	7.188	almost entirely prevented cocaine reinstatement	–	–	–
N#Cc1cc(Cl)cc(-c2cc(-c3ccc(F)cn3)ncn2)c1 [Compound 1, 3-chloro-5-[6-(5-fluoropyridin-2-yl)pyrimidin-4-yl]benzonitrile]	–	9.483	almost entirely prevented cocaine reinstatement	5.438	6.283	significantly attenuated oxycodone self-administration
